Experimental data from ChEMBL document CHEMBL3885861, “Open TG-GATES”.

Species: Rattus norvegicus
Experiment: Open TG-GATES - Regimen: Single
Assay type: toxicity, organism-based, Sprague-Dawley
Parameters: regimen Single, gender Male, age 6 weeks
Details: in vivo, po, 300 mg/kg, route gavage, dose level High; for APTT / Bas / Eos / Fbg / Hb / Ht / Lym / MCH / MCHC / MCV / Mono / Neu / PT / Plat / RBC / Ret / WBC: tissue Blood; for ALP / ALT / AST / BUN / CRE / DBIL / GLC / IP / K / Na / PL / RALB / TBIL / TC / TG / TP / gamma-GTP: tissue Plasma

Work on `NS(=O)(=O)c1cc(C(=O)O)c(NCc2ccco2)cc1Cl` [FUROSEMIDE] yielded a TERMINAL_BW (3 h) of 199.2 g, an APTT (3 h) of 18.3 s and a Bas (3 h) of 0%. It also gave an Eos (3 h) of 1%, a Fbg (3 h) of 357 mg/dL and a Hb (3 h) of 14.8 g/dL. It also gave a Ht (3 h) of 43.9%, a Lym (3 h) of 66.6% and an MCH (3 h) of 21.4 pg. The MCHC (3 h) was 33.7%, the MCV (3 h) was 63.6 fL and the Mono (3 h) was 4.6%. The Neu (3 h) was 26.4%, the PT (3 h) was 14.8 s and the Plat (3 h) was 119.6 x10_4/uL. For the same compound, the RBC (3 h) was 690.4 x10_4/ul, the Ret (3 h) was 8.3% and the WBC (3 h) was 67.2 x10_2/uL. For the same compound, the ALP (3 h) was 1694 IU/L, the ALT (3 h) was 47.2 IU/L and the AST (3 h) was 78.4 IU/L. The BUN (3 h) was 19.4 mg/dL, the CRE (3 h) was 0.3 mg/dL and the DBIL (3 h) was 0.01 mg/dL. It also gave a GLC (3 h) of 193.8 mg/dL, an IP (3 h) of 12.8 mg/dL and a K (3 h) of 3.4 meq/L. The Na (3 h) was 140 meq/L, the PL (3 h) was 168.2 mg/dL and the RALB (3 h) was 3.2 g/dL. The TBIL (3 h) was 0.062 mg/dL, the TC (3 h) was 91.6 mg/dL and the TG (3 h) was 69 mg/dL. For the same compound, the TP (3 h) was 6.9 g/dL, the gamma-GTP (3 h) was 0.8 IU/L and the TERMINAL_BW (6 h) was 194.8 g. The APTT (6 h) was 20.9 s, the Bas (6 h) was 0% and the Eos (6 h) was 1%. The Fbg (6 h) was 381.6 mg/dL, the Hb (6 h) was 15.3 g/dL and the Ht (6 h) was 45.3%. It also gave a Lym (6 h) of 62.6%, an MCH (6 h) of 21.4 pg and an MCHC (6 h) of 33.8%. For the same compound, the MCV (6 h) was 63.5 fL, the Mono (6 h) was 4% and the Neu (6 h) was 31.8%. It also gave a PT (6 h) of 14.4 s, a Plat (6 h) of 126.6 x10_4/uL and an RBC (6 h) of 715 x10_4/ul. For the same compound, the Ret (6 h) was 7.7%, the WBC (6 h) was 72.7 x10_2/uL and the ALP (6 h) was 1419.8 IU/L. The ALT (6 h) was 39.2 IU/L, the AST (6 h) was 77.2 IU/L and the BUN (6 h) was 24.4 mg/dL. It also gave a CRE (6 h) of 0.3 mg/dL, a DBIL (6 h) of 0.008 mg/dL and a GLC (6 h) of 190.6 mg/dL. The IP (6 h) was 11.4 mg/dL, the K (6 h) was 3.5 meq/L and the Na (6 h) was 140 meq/L. It also gave a PL (6 h) of 190 mg/dL, an RALB (6 h) of 3.2 g/dL and a TBIL (6 h) of 0.068 mg/dL. For the same compound, the TC (6 h) was 111.4 mg/dL, the TG (6 h) was 64.2 mg/dL and the TP (6 h) was 6.9 g/dL. For the same compound, the gamma-GTP (6 h) was 0.6 IU/L, the TERMINAL_BW (9 h) was 192 g and the APTT (9 h) was 19.5 s. The Bas (9 h) was 0%, the Eos (9 h) was 0.8% and the Fbg (9 h) was 382.4 mg/dL. For the same compound, the Hb (9 h) was 15.3 g/dL, the Ht (9 h) was 44.8% and the Lym (9 h) was 66.4%. For the same compound, the MCH (9 h) was 21.3 pg, the MCHC (9 h) was 34.1% and the MCV (9 h) was 62.5 fL. The Mono (9 h) was 3.4%, the Neu (9 h) was 28.4% and the PT (9 h) was 14.4 s. For the same compound, the Plat (9 h) was 117.9 x10_4/uL, the RBC (9 h) was 716 x10_4/ul and the Ret (9 h) was 7.8%. For the same compound, the WBC (9 h) was 73.1 x10_2/uL, the ALP (9 h) was 1461.8 IU/L and the ALT (9 h) was 38 IU/L. For the same compound, the AST (9 h) was 71.6 IU/L, the BUN (9 h) was 25.2 mg/dL and the CRE (9 h) was 0.2 mg/dL. For the same compound, the DBIL (9 h) was 0.012 mg/dL, the GLC (9 h) was 186.8 mg/dL and the IP (9 h) was 10.9 mg/dL. It also gave a K (9 h) of 3.3 meq/L, a Na (9 h) of 141.6 meq/L and a PL (9 h) of 176.8 mg/dL. It also gave an RALB (9 h) of 3.2 g/dL, a TBIL (9 h) of 0.078 mg/dL and a TC (9 h) of 102 mg/dL. For the same compound, the TG (9 h) was 33.6 mg/dL, the TP (9 h) was 6.8 g/dL and the gamma-GTP (9 h) was 1 IU/L. The TERMINAL_BW (24 h) was 195.5 g, the APTT (24 h) was 16.8 s and the Bas (24 h) was 0.2%. It also gave an Eos (24 h) of 1%, a Fbg (24 h) of 386.6 mg/dL and a Hb (24 h) of 14.5 g/dL. It also gave a Ht (24 h) of 41.9%, a Lym (24 h) of 74% and an MCH (24 h) of 21.2 pg. The MCHC (24 h) was 34.5%, the MCV (24 h) was 61.3 fL and the Mono (24 h) was 3.4%. The Neu (24 h) was 20.4%, the PT (24 h) was 15.2 s and the Plat (24 h) was 117.8 x10_4/uL. It also gave an RBC (24 h) of 683.8 x10_4/ul, a Ret (24 h) of 6.7% and a WBC (24 h) of 95.6 x10_2/uL. It also gave an ALP (24 h) of 1470.8 IU/L, an ALT (24 h) of 44.4 IU/L and an AST (24 h) of 72.8 IU/L. For the same compound, the BUN (24 h) was 36.2 mg/dL, the CRE (24 h) was 0.3 mg/dL and the DBIL (24 h) was 0.014 mg/dL. For the same compound, the GLC (24 h) was 178.4 mg/dL, the IP (24 h) was 7.8 mg/dL and the K (24 h) was 3.3 meq/L. It also gave a Na (24 h) of 138.2 meq/L, a PL (24 h) of 159.2 mg/dL and an RALB (24 h) of 3 g/dL. For the same compound, the TBIL (24 h) was 0.064 mg/dL, the TC (24 h) was 93.2 mg/dL and the TG (24 h) was 43 mg/dL. The TP (24 h) was 6.4 g/dL and the gamma-GTP (24 h) was 0.8 IU/L.
